Test results from patent US20200140489A1 (priority 2013, published 2020).
Where two headings read alike, the source gives them in different places. Positions of bridges follow the written chain, without caps; N, C: chain ends. Non-standard residues stand in square brackets, D forms with d. Residues, ends and D or L forms follow the SMILES beside them. NMeF = CN[C@@H](Cc1ccccc1)C(=O)O; NMeN = CN[C@@H](CC(N)=O)C(=O)O; NMeC = CN[C@@H](CS)C(=O)O; Nphe = O=C(O)CNCc1ccccc1

Legend:
AgrC-I [1] = molecular target: T1, AgrC-I (Staphylococcus aureus, UniProt O07911); type: cell-based, S. aureus; settings: for IC50: read-out: AgrC-I IC50, fluorescence reporter strain
T1 sequence (O07911 1-430): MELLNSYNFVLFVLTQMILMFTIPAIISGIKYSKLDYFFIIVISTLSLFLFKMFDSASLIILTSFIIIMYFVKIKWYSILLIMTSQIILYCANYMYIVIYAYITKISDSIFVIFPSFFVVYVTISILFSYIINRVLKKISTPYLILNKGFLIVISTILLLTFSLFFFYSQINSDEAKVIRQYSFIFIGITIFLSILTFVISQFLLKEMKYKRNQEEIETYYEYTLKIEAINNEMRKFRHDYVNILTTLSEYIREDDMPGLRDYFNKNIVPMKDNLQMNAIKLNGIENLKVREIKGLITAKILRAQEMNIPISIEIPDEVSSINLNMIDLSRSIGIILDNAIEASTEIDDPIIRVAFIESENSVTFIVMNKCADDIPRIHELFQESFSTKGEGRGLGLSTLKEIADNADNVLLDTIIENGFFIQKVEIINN

AgrC-II [2] = molecular target: T2, AgrC-II (Staphylococcus aureus, UniProt O33587); type: cell-based, S. aureus; settings: for IC50: read-out: AgrC-II IC50, fluorescence reporter strain
T2 sequence (O33587 1-437): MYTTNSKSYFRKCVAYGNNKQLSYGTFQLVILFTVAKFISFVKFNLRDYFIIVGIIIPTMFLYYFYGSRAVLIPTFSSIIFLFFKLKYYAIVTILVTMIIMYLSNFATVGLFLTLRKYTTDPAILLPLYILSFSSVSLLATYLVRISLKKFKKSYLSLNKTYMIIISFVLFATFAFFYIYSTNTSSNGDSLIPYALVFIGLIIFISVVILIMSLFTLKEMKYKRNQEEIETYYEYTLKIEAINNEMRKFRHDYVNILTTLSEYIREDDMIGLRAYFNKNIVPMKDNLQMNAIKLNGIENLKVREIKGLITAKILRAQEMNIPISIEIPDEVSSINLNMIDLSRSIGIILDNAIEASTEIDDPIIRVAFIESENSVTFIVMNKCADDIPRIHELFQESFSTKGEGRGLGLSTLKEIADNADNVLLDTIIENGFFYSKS

AgrC-IV [3] = molecular target: T3, AgrC-IV (Staphylococcus aureus, UniProt Q309Z2); type: cell-based, S. aureus; settings: for IC50: read-out: AgrC-IV IC50, fluorescence reporter strain
T3 sequence (Q309Z2 1-430): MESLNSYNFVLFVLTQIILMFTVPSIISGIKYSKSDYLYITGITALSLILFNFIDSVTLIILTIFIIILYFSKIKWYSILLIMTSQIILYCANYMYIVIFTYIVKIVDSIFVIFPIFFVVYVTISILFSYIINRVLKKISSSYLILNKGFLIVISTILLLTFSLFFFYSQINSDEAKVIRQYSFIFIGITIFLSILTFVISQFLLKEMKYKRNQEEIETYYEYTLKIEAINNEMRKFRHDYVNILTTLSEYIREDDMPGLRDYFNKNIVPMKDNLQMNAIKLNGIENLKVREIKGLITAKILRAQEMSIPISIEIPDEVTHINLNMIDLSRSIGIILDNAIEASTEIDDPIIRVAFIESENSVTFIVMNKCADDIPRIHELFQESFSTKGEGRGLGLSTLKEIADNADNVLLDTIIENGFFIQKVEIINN

AgrC-III [4] = molecular target: T4, AgrC-III (Staphylococcus aureus, UniProt O33590); settings: read-out: AgrC-III EC50; β-lactamase reporter strain; 2.5 pM − 10 μM
T4 sequence (O33590 1-425): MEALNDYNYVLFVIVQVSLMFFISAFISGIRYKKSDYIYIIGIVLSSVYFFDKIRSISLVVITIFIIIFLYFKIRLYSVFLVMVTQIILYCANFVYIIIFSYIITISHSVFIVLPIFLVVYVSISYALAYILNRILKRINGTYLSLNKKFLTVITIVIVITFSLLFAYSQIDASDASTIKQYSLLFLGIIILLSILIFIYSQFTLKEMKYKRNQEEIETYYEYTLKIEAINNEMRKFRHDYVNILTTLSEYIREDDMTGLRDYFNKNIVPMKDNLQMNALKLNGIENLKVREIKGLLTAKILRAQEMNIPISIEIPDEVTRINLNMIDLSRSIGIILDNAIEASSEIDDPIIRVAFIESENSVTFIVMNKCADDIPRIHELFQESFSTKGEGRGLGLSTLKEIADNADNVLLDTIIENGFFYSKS

AgrC-III [5] = molecular target: T4, AgrC-III; type: cell-based, S. aureus; settings: for IC50: read-out: AgrC-III IC50, fluorescence reporter strain
AgrC-III [6] = molecular target: T4, AgrC-III; test: Hemolysis assay, wild-type group-III strain MN8, rabbit red blood cells
AgrC-II [7] = molecular target: T2, AgrC-II; test: Hemolysis assay, wild-type group-II strain RN6923, rabbit red blood cells; settings: for IC50: read-out: AgrC-II IC50, hemolysis assay, 200 fM − 10 μM
AgrC-IV [8] = molecular target: T3, AgrC-IV; test: Hemolysis assay, wild-type group-IV strain RN4850, rabbit red blood cells; settings: for IC50: read-out: AgrC-IV IC50, hemolysis assay, 200 fM − 10 μM
AgrC-I [9] = molecular target: T1, AgrC-I; test: Hemolysis assay, wild-type group-I strain RN6390B, rabbit red blood cells; settings: read-out: AgrC-I IC50; selected second-generation analogues, hemolysis assay; 200 fM − 10 μM
[10] = system: TSST-1 production in wild-type group-III S. aureus (MN8); type: cell-based
[11] = AIPs tested over 200 fM − 10 μM or (b1) 2.5 pM − 10 μM, triplicate
[12] = read-out: AgrC-III IC50, 200 fM − 10 μM
[13] = second-generation analogues, 200 fM − 10 μM
[14] = read-out: AgrC-III IC50, selected second-generation analogues, 200 fM − 10 μM
[15] = selected second-generation analogues

`CC[C@H](C)[C@H](N)C(=O)N[C@@H](CC(N)=O)C(=O)N[C@H]1CSC(=O)[C@H](CC(C)C)NC(=O)[C@H](CC(C)C)NC(=O)[C@H](Cc2ccccc2)N(C)C(=O)[C@H](CC(=O)O)NC1=O` [AIP-III N-Me-F5, I-N-(C-D-NMeF-L-L)] (H-INCD[NMeF]LL; thioester 3-C) was tested, and the IC50 (AgrC-I [1]; [11]) was 4.49 nM, the IC50 (AgrC-II [2]; [11]) was 1.95 nM and the IC50 (AgrC-IV [3]; [11]) was 6.59 nM. It also gave an EC50 (AgrC-III [4]) of 49.6 nM.

`CC[C@H](C)[C@H](N)C(=O)N[C@@H](CC(N)=O)C(=O)N(C)[C@H]1CSC(=O)[C@H](CC(C)C)NC(=O)[C@H](CC(C)C)NC(=O)[C@H](Cc2ccccc2)NC(=O)[C@H](CC(=O)O)NC1=O` [AIP-III N-Me-C3, I-N-(NMeC-D-F-L-L)] (H-IN[NMeC]DFLL; thioester 3-C) gave an IC50 (AgrC-I [1]; [11]) of 137 nM, an IC50 (AgrC-II [2]; [11]) of 134 nM and an IC50 (AgrC-IV [3]; [11]) of 106 nM. The EC50 (AgrC-III [4]) was greater than 1000 nM.

`CC[C@H](C)[C@@H]1NC(=O)[C@H](Cc2ccccc2)NC(=O)[C@H](CC(=O)O)NC(=O)[C@@H](NC(=O)[C@@H](NC(=O)[C@H](CO)NC(=O)[C@@H](N)Cc2ccc(O)cc2)[C@@H](C)O)CSC(=O)[C@H](CCSC)NC1=O` [AIP-I, Y-S-T-(C-D-F-I-M), reference compound] (H-YSTCDFIM; thioester 4-C) showed an IC50 (AgrC-II [2]; [11]) of 8 nM, an IC50 (AgrC-III [5]; [11]) of 0.522 nM and an IC50 (AgrC-III [6]; [12]) of 6.12 nM. The IC50 (AgrC-II [7]) was 3.34 nM and the IC50 (AgrC-IV [8]) was 189 nM.

`CC[C@H](C)[C@H](N)C(=O)N(C)[C@@H](CC(N)=O)C(=O)N[C@H]1CSC(=O)[C@H](CC(C)C)NC(=O)[C@H](CC(C)C)NC(=O)[C@H](Cc2ccccc2)NC(=O)[C@H](CC(=O)O)NC1=O` [AIP-III N-Me-N2, I-NMeN-(C-D-F-L-L)] (H-I[NMeN]CDFLL; thioester 3-C) gave an IC50 (AgrC-I [1]; [11]) of 8.04 nM, an IC50 (AgrC-II [2]; [11]) of 3.19 nM and an IC50 (AgrC-IV [3]; [11]) of 9.54 nM. For the same compound, the EC50 (AgrC-III [4]) was 19 nM.

`CC[C@H](C)[C@H](N)C(=O)N[C@@H](CC(N)=O)C(=O)N[C@H]1CSC(=O)[C@H](CC(C)C)NC(=O)[C@H](CC(C)C)NC(=O)CN(Cc2ccccc2)C(=O)[C@H](CC(=O)O)NC1=O` [AIP-III nF5, I-N-(C-D-nF-L-L)] (H-INCD[Nphe]LL; thioester 3-C) was tested, and the IC50 (AgrC-I [1]; [11]) was 13.8 nM, the “fold reduction of potency for AgrC-II versus AIP-III” value (AgrC-II [2]; gfp reporter) was 13 fold and the IC50 (AgrC-II [2]; [11]) was 75.6 nM. For the same compound, the IC50 (AgrC-III [5]; [11]) was greater than 1000 nM, the “fold increase of inhibitory activity relative to AIP-III” value (AgrC-IV [3]; gfp reporter, group-IV) was 10 fold and the IC50 (AgrC-IV [3]; [11]) was 0.839 nM. For the same compound, the EC50 (AgrC-III [4]) was 202 nM.

`CC(C)C[C@@H]1NC(=O)[C@H](Cc2ccccc2)NC(=O)[C@H](C)NC(=O)[C@@H](NC(=O)[C@H](C)NC(=O)[C@H](C)N)CSC(=O)[C@H](CC(C)C)NC1=O` [AIP-III I1A/N2A/D4A, A-A-(C-A-F-L-L)] (H-AACAFLL; thioester 3-C) was tested, and the IC50 (AgrC-I [1]; [13]) was 0.304 nM, the IC50 (AgrC-II [2]; [13]) was 0.604 nM and the IC50 (AgrC-III [5]; [13]) was 0.0734 nM. The IC50 (AgrC-IV [3]; [13]) was 0.0161 nM, the IC50 (AgrC-III [6]; [14]) was 0.243 nM and the IC50 (AgrC-I [9]) was 0.0411 nM. It also gave an IC50 (AgrC-II [7]; [15]) of 0.0606 nM and an IC50 (AgrC-IV [8]; [15]) of 0.14 nM.

`CC(=O)N[C@H]1CSC(=O)[C@H](CC(C)C)NC(=O)[C@H](CC(C)C)NC(=O)[C@H](Cc2c[nH]c3ccccc23)NC(=O)[C@H](C)NC1=O` [Ac-(C-A-W-L-L)] (Ac-CAWLL; thioester 1-C) was tested, and the IC50 (AgrC-I [1]; [13]) was 0.909 nM, the IC50 (AgrC-II [2]; [13]) was 1.9 nM and the IC50 (AgrC-III [5]; [13]) was 0.509 nM. For the same compound, the IC50 (AgrC-IV [3]; [13]) was 0.0363 nM, the IC50 (AgrC-III [6]; [14]) was 1.08 nM and the IC50 (AgrC-I [9]) was 0.468 nM. The IC50 (AgrC-II [7]; [15]) was 0.126 nM and the IC50 (AgrC-IV [8]; [15]) was 0.194 nM.

`CC[C@H](C)[C@H](N)C(=O)N[C@@H](CC(N)=O)C(=O)N[C@H]1CSC(=O)[C@H](CC(C)C)NC(=O)[C@H](CC(C)C)NC(=O)[C@H](Cc2ccccc2)NC(=O)[C@H](C)NC1=O` [AIP-III D4A, I-N-(C-A-F-L-L)] (H-INCAFLL; thioester 3-C) was tested, and the “fold increase of inhibitory activity relative to AIP-III” value (AgrC-I [1]; gfp reporter, group-I) was “at least 10 fold”, the “fold more active inhibitor than tAIP-I D2A” value (AgrC-I [1]; gfp reporter, group-I) was roughly 10 fold and the “fold increase of inhibitory activity relative to AIP-III” value (AgrC-II [2]; gfp reporter, group-II) was “at least 10 fold”. The “fold more active inhibitor than tAIP-I D2A” value (AgrC-II [2]; gfp reporter, group-II) was roughly 10 fold, the “fold increase of inhibitory activity relative to AIP-III” value (AgrC-III [5]; gfp reporter, group-III) was “at least 10 fold” and the “fold more active inhibitor than tAIP-I D2A” value (AgrC-III [5]; gfp reporter, group-III) was roughly 10 fold. For the same compound, the “fold increase of inhibitory activity relative to AIP-III” value (AgrC-IV [3]; gfp reporter, group-IV) was “at least 10 fold”, the “fold more active inhibitor than tAIP-I D2A” value (AgrC-IV [3]; gfp reporter, group-IV) was roughly 10 fold and the “reduction of TSST-1 levels” value [10] was 80%. The IC50 (AgrC-III [6]; [12]) was 0.163 nM, the “fold more active than tAIP-I D2A in the hemolysis assay” value (AgrC-II [7]; group-II strain) was 40 fold and the “fold more active than tAIP-I D2A in the hemolysis assay” value (AgrC-IV [8]; group IV strain) was “three”. It also gave an IC50 (AgrC-IV [8]) of 0.106 nM.
